Like-named read-outs stand apart in the source and are kept apart here.
Experiments:
C. Felis fleas = experiment: Lufenuron systemic flea ovicidal activity upon oral administration to host dogs (Example 5); format: in vivo, C. felis (host: dogs); conditions: oral single doses of 10 mg/kg at Day 0 and Day 28
Protocol: Flea eggs were collected on Days -7, 0, 1, 2, 4, 7, and weekly thereafter through Day 63. Prior to egg collection, the cages in which the dogs were housed and the collection trays were rinsed with isopropyl alcohol, and the water was turned off, feed bowls and resting pads were removed from each cage. Trays covered with a screen made of […] hardware cloth were placed under the cages, and heavy white butcher paper was placed under the hardware cloth. After an interval of 14-16 hours, the paper was swept and the debris and flea eggs thus collected were transferred to a metal pan. The debris was separated from the eggs by sieving, and the eggs were placed in half-pint plastic cartons, then transferred to 10 cm x 10 cm glass plates. Using a dissecting microscope and a fine tipped artist brush, 100 flea eggs were counted from the sweepings of each dog and separated into four replicates of 25 eggs each. The eggs were placed in a 15 mm x 60 mm disposable plastic petri dish and incubated at 79-80°F and 80% relative humidity. Seventy two hours after collection, larvae emergence was determined. Both dead and live larvae were counted to determine the ovicidal effect of the treatment.
Six random bred and purebred, clinically healthy dogs, three male and three female, ranging in weight from 5.5 kg to 17.2 kg each and in age from 5 months to 42 months, and having hair coats ranging from medium to coarse and from 1.0 to 5.0 cm in length, were used. The dogs were divided into two treatment groups of three dogs each. The dogs were all maintained on regular feeding schedules of dog food and water, and each dog in one of the two groups was administered an appropriate number of lufenuron-containing gelatin capsules to achieve a dosage of 10 mg/kg of the body weight of the dog. This dosage is identified in the supplier's technical literature as the minimum effective dosage for C. felis in dogs, and the dosage that will result in a blood concentration level of 0.05 ppm remaining for at least 14 days after the administration of a single dose. Administration was performed at Day 0 and again at Day 28.
On Days -8 (eight days before the lufenuron administration), -4, 3, 10, 17, 24, 31, 38, 45, 52, and 59, approximately 100 unfed adult C. Felis fleas were applied to each dog by standard procedures. Flea eggs were collected and larval emergence (egg hatching) was determined by the procedures of Example 2 on Days -4, 0, 1, 2, 4, 7, 14, 21, 28, 35, 42, 49, and 56.

[1] = remaining for at least 14 days after the administration of a single dose of 10 mg/kg; supplier's technical literature; cited from earlier work
C. felis = conditions: supplier's technical literature; cited from earlier work
adult cat fleas = experiment: Flea ovicidal activity in vitro: artificial feeding system with treated beef blood (Examples 4 and 6); parameters: species or system C. felis; conditions: Ctenocephalides felis, read-out: Percent Inhibition of Flea Egg Hatching; for inhibition at 0.5 ppm: 0.5 ppm in beef blood; for inhibition at 5 ppm: 5.0 ppm in beef blood; for inhibition at 0.05 ppm: 0.05 ppm in beef blood
Description: For the in vitro tests, an artificial feeding system with cages for adult cat fleas C. felis was used as described by Wade, S.E., et al., J. Med. Ent. 25(3): 186-190 (May 1988). Inside each cage were placed 100 one-week-old, unfed adult C. fells. Each cage included a container for treated blood separated from the fleas by a PARAFILM® membrane, and a compartment containing thin strips of paper to support loosely arranged clean dog hair and to provide a foothold for the fleas as they fed on the blood through the membrane.
The artificial feeding system and cages for adult cat fleas described in Example 3 were used. Beef blood was used for the feeding system, and was prepared by adding 35 mL of a 20% sodium citrate solution per liter of blood to prevent clotting. A stock solution of lufenuron was prepared by adding 50.1 mg of technical lufenuron to 4.951 g of dimethyl sulfoxide (DMSO) to yield a 1.0% solution. A 1,000 ppm solution was then prepared by diluting 1.0 mL of the 1.0% solution in 9.0 mL of DMSO, and a 100 ppm solution was prepared by diluting 1.0 mL of the 1,000 ppm solution in 9.0 mL of DMSO. Dimethyl sulfoxide itself was used as a control. To treat the blood, the various solutions (0.05 mL) were added to the citrated beef blood (100.0 mL) to yield beef blood solutions containing 5.0 ppm, 0.5 ppm, 0.05 ppm, and 0.00 (zero) ppm lufenuron. Each solution was mixed thoroughly, and 10 mL at each concentration were placed in each of five feeders in the artificial feeding system to serve as replicates. Each day fresh blood solutions identical to the originals were placed in the feeders.
Flea eggs were collected from each replicate on days 3, 5 and 7. One hundred (100) healthy appearing […] were counted under a dissecting microscope from each replicate, divided into two subsamples per replicate, and placed in 60 mm x 15 mm plastic petri dishes. The samples were incubated at 78°F and 85% relative humidity for three days, then scored for larval hatch using by visual observation through the dissecting microscope. The data from all replicates at each concentration were combined to yield the mean percent egg hatch, and the percent inhibition of egg hatch was calculated relative to the control.
Retuming to (S)-methoprene, this example presents in vitro flea ovicidal activity using beef blood, for comparison with Example 4. Procedures using beef blood were the same as those indicated in the previous examples.

O=C(NC(=O)c1c(F)cccc1F)Nc1cc(Cl)c(OC(F)(F)C(F)C(F)(F)F)cc1Cl (stereo not drawn) [Lufenuron]
Percent Inhibition of Flea Egg Hatching (C. Felis fleas; Day 1): 39.9% | Percent Inhibition of Flea Egg Hatching (C. Felis fleas; Day 2): 70.6% | Percent Inhibition of Flea Egg Hatching (C. Felis fleas; Day 4): 54.5% | Percent Inhibition of Flea Egg Hatching (C. Felis fleas; Day 7): 54.1% | Percent Inhibition of Flea Egg Hatching (C. Felis fleas; Day 14): 52.1% | Percent Inhibition of Flea Egg Hatching (C. Felis fleas; Day 21): 10.7% | Percent Inhibition of Flea Egg Hatching (C. Felis fleas; Day 28): 0% | Percent Inhibition of Flea Egg Hatching (C. Felis fleas; Day 35): 48.6% | Percent Inhibition of Flea Egg Hatching (C. Felis fleas; Day 42): 0% | Percent Inhibition of Flea Egg Hatching (C. Felis fleas; Day 49): 72.7% | Percent Inhibition of Flea Egg Hatching (C. Felis fleas; Day 56): 20.5% | blood concentration level [1]: 0.05 ppm | minimum effective dosage for C. felis in dogs (C. felis): 10 mg/kg | inhibition at 0.5 ppm (adult cat fleas; 72 h, day 3, low number of eggs produced in both controls and treated groups): 80.6% | inhibition at 5 ppm (adult cat fleas; 72 h, day 3): 100% | inhibition at 0.05 ppm (adult cat fleas; 120 h, day 5): 10.8% | inhibition at 0.5 ppm (adult cat fleas; 120 h, day 5): 56.5% | inhibition at 5 ppm (adult cat fleas; 120 h, day 5): 99.8% | inhibition at 0.05 ppm (adult cat fleas; 168 h, day 7): 6.9% | inhibition at 0.5 ppm (adult cat fleas; 168 h, day 7): 63.2% | inhibition at 5 ppm (adult cat fleas; 168 h, day 7): 100%

Source: patent EP0923292B1, “IMPROVED METHOD FOR SYSTEMIC ADMINISTRATION OF 2,4-DIENOIC ACID-TYPE INSECTICIDES TO TERRESTRIAL MAMMALS” (priority 1996, dated 1998)
